Reference: US8497278B2, “Imidazo[1,2-a]pyridine compounds” (priority 2008, dated 2013)

These compounds were tested on central benzodiazepine receptors (assay: Central benzodiazepine receptor binding (test of Speth et al.)). Details: 1000 nM of the compound.
Experimental: Compounds of the invention were assessed for their binding to the benzodiazepine receptor by the test of Speth et al. [Life Sci. 24, 351 (1979)] for central benzodiazepine receptors and LeFur et al. [Life Sci. 33, 449 (1983)] for peripheral receptors. The compounds were tested first at 1.0E-09, 1.0E-07 and 1.0E-05 M in single determination. […] The specific ligand binding to the receptor is defined as the difference between the total binding and the nonspecific binding determined in the presence of an excess of unlabelled ligand. In each experiment, the respective reference compound was tested concurrently with the test compounds in order to assess the assay suitability. It was tested at several concentrations (for IC50 value determination), and the data were compared with historical values. The assay was rendered valid if suitability criteria were met.
BZD central binding data for the compounds is provided in Table 3, wherein is provided the percent inhibition of central BZD in the presence of 1000 nM of the compound.

**Q.** `Cc1ccc(-c2nc3c(Cl)cc(Cl)cn3c2CNc2nc(C)cc(C)n2)cc1` [Compound 172, (6,8-Dichloro-2-p-tolyl-imidazo[1,2-a]pyridin-3-ylmethyl)-(4,6-dimethyl-pyrimidin-2-yl)-amine] was tested. Which “% Inhibition at 1000 nM for CBZD” value did it give?
**A.** ++ (percentage of inhibition of central BZD site binding is greater than 80% in the presence of 1000 nM of the compound)

**Q.** How did the “% Inhibition at 1000 nM for CBZD” value turn out when `CON(C)C(=O)c1ncnn1Cc1c(-c2ccc(Cl)cc2)nc2ccc(Cl)cn12` [Compound 82, 2-[6-Chloro-2-(4-chloro-phenyl)-imidazo[1,2-a]pyridin-3-ylmethyl]-2H-[1,2,4]triazole-3-carboxylic acid methoxy-methyl-amide] was run?
**A.** ++ (percentage of inhibition of central BZD site binding is greater than 80% in the presence of 1000 nM of the compound)

**Q.** With `Fc1cc(F)nc(NCc2c(-c3ccccc3)nc3ccc(Cl)cn23)n1` [Compound 168, N-((6-chloro-2-phenylimidazo[1,2-a]pyridin-3-yl)methyl)-4,6-difluoropyrimidin-2-amine] as the compound, how does the “% Inhibition at 1000 nM for CBZD” value read?
**A.** ++ (percentage of inhibition of central BZD site binding is greater than 80% in the presence of 1000 nM of the compound)

**Q.** For `CNc1nnc(Cc2c(-c3ccc(Cl)cc3)nc3ccccn23)s1` [Compound 235, 5-((2-(4-chlorophenyl)imidazo[1,2-a]pyridin-3-yl)methyl)-N-methyl-1,3,4-thiadiazol-2-amine], which “% Inhibition at 1000 nM for CBZD” value is on record?
**A.** + (percentage of inhibition of central BZD site binding is greater than 50% but less than 80% in the presence of 1000 nM of the compound)

**Q.** Which “% Inhibition at 1000 nM for CBZD” value does the source give for `Cc1ccc(-c2nc3ccc(C)cn3c2Cn2ccnc2C(=O)N(C)C)cc1` [Compound 71, N,N-Dimethyl-1-((6-methyl-2-p-tolylH-imidazo[1,2-a]pyridin-3-yl)methyl)-1H-imidazole-2-carboxamide] here?
**A.** + (percentage of inhibition of central BZD site binding is greater than 50% but less than 80% in the presence of 1000 nM of the compound)

**Q.** How did the “% Inhibition at 1000 nM for CBZD” value turn out when `COC(=O)c1ncnn1Cc1c(-c2ccc(C)cc2)nc2ccc(C)cn12` [Compound 10, 2-(6-Methyl-2-p-tolyl-imidazo[1,2-a]pyridin-3-ylmethyl)-2H-[1,2,4]triazole-3-carboxylic acid methyl ester] was run?
**A.** ++ (percentage of inhibition of central BZD site binding is greater than 80% in the presence of 1000 nM of the compound)

**Q.** `Cc1ccc(-c2nc3ccc(C)cn3c2Cn2cnc3ccccc32)cc1` [Compound 16, 1-((6-Methyl-2-p-tolyl-H-imidazo[1,2-a]pyridin-3-yl)methyl)-1H-benzo[d]imidazole] was tested. Which “% Inhibition at 1000 nM for CBZD” value did it give?
**A.** ++ (percentage of inhibition of central BZD site binding is greater than 80% in the presence of 1000 nM of the compound)

**Q.** `Cc1ccc(-c2nc3ccc(C)cn3c2CNc2nccc(C)n2)cc1` [Compound 143, 4-methyl-N-((6-methyl-2-p-tolylH-imidazo[1,2-a]pyridin-3-yl)methyl)pyrimidin-2-amine] was tested. Which “% Inhibition at 1000 nM for CBZD” value did it give?
**A.** ++ (percentage of inhibition of central BZD site binding is greater than 80% in the presence of 1000 nM of the compound)

**Q.** How did the “% Inhibition at 1000 nM for CBZD” value turn out when `Cc1ccc(-c2nc3ccc(C)cn3c2CN2C(=O)OC(C)(C)C2=O)cc1` [Compound 101, 5,5-dimethyl-3-((6-methyl-2-p-tolylH-imidazo[1,2-a]pyridin-3-yl)methyl)oxazolidine-2,4-dione] was run?
**A.** ++ (percentage of inhibition of central BZD site binding is greater than 80% in the presence of 1000 nM of the compound)

**Q.** With `Cc1ccc(-c2nc3ccc(C)cn3c2CSc2nncn2C)cc1` [Compound 176, 3-((4-methyl-4H-1,2,4-triazol-3-ylthio)methyl)-6-methyl-2-p-tolylH-imidazo[1,2-a]pyridine] as the compound, how does the “% Inhibition at 1000 nM for CBZD” value read?
**A.** ++ (percentage of inhibition of central BZD site binding is greater than 80% in the presence of 1000 nM of the compound)

**Q.** How did the “% Inhibition at 1000 nM for CBZD” value turn out when `CCOC(=O)c1nccn1Cc1c(-c2ccc(Cl)cc2)nc2ccccn12` [Compound 26, Ethyl 1-((2-(4-chlorophenyl)H-imidazo[1,2-a]pyridin-3-yl)methyl)-1H-imidazole-2-carboxylate] was run?
**A.** ++ (percentage of inhibition of central BZD site binding is greater than 80% in the presence of 1000 nM of the compound)

**Q.** For `Cn1ccnc1Cc1c(-c2ccc(F)cc2)nc2ccc(F)cn12` [Compound 199, 6-fluoro-2-(4-fluorophenyl)-3-((1-methyl-1H-imidazol-2-yl)methyl)imidazo[1,2-a]pyridine], which “% Inhibition at 1000 nM for CBZD” value is on record?
**A.** ++ (percentage of inhibition of central BZD site binding is greater than 80% in the presence of 1000 nM of the compound)

**Q.** With `CCOC(=O)c1nccn1Cc1c(-c2ccc(Cl)cc2)nc2ccc(Cl)cn12` [Compound 22, 1-[6-Chloro-2-(4-chloro-phenyl)-imidazo[1,2-a]pyridin-3-ylmethyl]-1H-imidazole-2-carboxylic acid ethyl ester] as the compound, how does the “% Inhibition at 1000 nM for CBZD” value read?
**A.** ++ (percentage of inhibition of central BZD site binding is greater than 80% in the presence of 1000 nM of the compound)

**Q.** `NC(=O)c1ncnn1Cc1c(-c2ccc(Cl)cc2)nc2cccnn12` [Compound 89, 1-((2-(4-chlorophenyl)imidazo[1,2-b]pyridazin-3-yl)methyl)-1H-1,2,4-triazole-5-carboxamide] was tested. Which “% Inhibition at 1000 nM for CBZD” value did it give?
**A.** ++ (percentage of inhibition of central BZD site binding is greater than 80% in the presence of 1000 nM of the compound)

**Q.** For `O=C1CCN1Cc1c(-c2ccc(Cl)cc2)nc2ccc(Cl)cn12` [Compound 113, 1-[6-Chloro-2-(4-chloro-phenyl)-imidazo[1,2-a]pyridin-3-ylmethyl]-azetidin-2-one], which “% Inhibition at 1000 nM for CBZD” value is on record?
**A.** ++ (percentage of inhibition of central BZD site binding is greater than 80% in the presence of 1000 nM of the compound)

**Q.** `COC1=CC(=O)N(Cc2c(-c3ccc(C)cc3)nc3ccc(C)cn23)C1` [Compound 94, 4-methoxy-1-((6-methyl-2-p-tolyl-H-imidazo[1,2-a]pyridin-3-yl)methyl)-1H-pyrrol-2(5H)-one] was tested. Which “% Inhibition at 1000 nM for CBZD” value did it give?
**A.** ++ (percentage of inhibition of central BZD site binding is greater than 80% in the presence of 1000 nM of the compound)

**Q.** Which “% Inhibition at 1000 nM for CBZD” value does the source give for `COC(=O)C1Cc2ccccc2N1Cc1c(-c2ccc(Cl)cc2)nc2ccccn12` (stereo not shown) [Compound 35, Methyl 1-((2-(4-chlorophenyl)imidazo[1,2-a]pyridin-3-yl)methyl)indoline-2-carboxylate] here?
**A.** + (percentage of inhibition of central BZD site binding is greater than 50% but less than 80% in the presence of 1000 nM of the compound)

**Q.** Which “% Inhibition at 1000 nM for CBZD” value does the source give for `COC(=O)c1ncn(Cc2c(-c3ccc(C)cc3)nc3ccc(C)cn23)n1` [Compound 11, 1-(6-Methyl-2-p-tolyl-imidazo[1,2-a]pyridin-3-ylmethyl)-1H-[1,2,4]triazole-3-carboxylic acid methyl ester] here?
**A.** ++ (percentage of inhibition of central BZD site binding is greater than 80% in the presence of 1000 nM of the compound)

**Q.** How did the “% Inhibition at 1000 nM for CBZD” value turn out when `Cc1ccc(-c2nc3c(Cl)cc(Cl)cn3c2Cn2cccn2)cc1` [Compound 65, 3-((1H-pyrazol-1-yl)methyl)-6,8-dichloro-2-p-tolylimidazo[1,2-a]pyridine] was run?
**A.** ++ (percentage of inhibition of central BZD site binding is greater than 80% in the presence of 1000 nM of the compound)

**Q.** For `Cc1ccc(-c2nc3ccc(C)cn3c2COc2cccnc2)cc1` [Compound 175, 6-Methyl-3-(pyridin-3-yloxymethyl)-2-p-tolyl-imidazo[1,2-a]pyridine], which “% Inhibition at 1000 nM for CBZD” value is on record?
**A.** ++ (percentage of inhibition of central BZD site binding is greater than 80% in the presence of 1000 nM of the compound)

**Q.** For `COC(=O)c1cn(Cc2c(-c3ccc(Cl)cc3)nc3ccccn23)c2ccccc12` [Compound 38, Methyl 1-((2-(4-chlorophenyl)imidazo[1,2-a]pyridin-3-yl)methyl)-1H-indole-3-carboxylate], which “% Inhibition at 1000 nM for CBZD” value is on record?
**A.** ++ (percentage of inhibition of central BZD site binding is greater than 80% in the presence of 1000 nM of the compound)

**Q.** For `c1ccc(-c2nc3ccccn3c2Cn2ccnn2)cc1` [Compound 50, 3-((1H-1,2,3-triazol-1-yl)methyl)-2-phenylH-imidazo[1,2-a]pyridine], which “% Inhibition at 1000 nM for CBZD” value is on record?
**A.** + (percentage of inhibition of central BZD site binding is greater than 50% but less than 80% in the presence of 1000 nM of the compound)

**Q.** Which “% Inhibition at 1000 nM for CBZD” value does the source give for `Clc1ccc(-c2nc3ccc(Cl)cn3c2Cn2cncn2)cc1` [Compound 18, 3-((1H-1,2,4-triazol-1-yl)methyl)-6-chloro-2-(4-chlorophenyl)H-imidazo[1,2-a]pyridine] here?
**A.** ++ (percentage of inhibition of central BZD site binding is greater than 80% in the presence of 1000 nM of the compound)

**Q.** `CC(C)c1nnc(Cc2c(-c3ccccc3)nc3ccc(Cl)cn23)[nH]1` [Compound 232, 6-chloro-3-((5-isopropyl-4H-1,2,4-triazol-3-yl)methyl)-2-phenylimidazo[1,2-a]pyridine] was tested. Which “% Inhibition at 1000 nM for CBZD” value did it give?
**A.** ++ (percentage of inhibition of central BZD site binding is greater than 80% in the presence of 1000 nM of the compound)

**Q.** `Cc1ccc(-c2nc3ccc(C)cn3c2CNc2cc(C)ns2)cc1` [Compound 151, 3-methyl-N-((6-methyl-2-p-tolylH-imidazo[1,2-a]pyridin-3-yl)methyl)isothiazol-5-amine] was tested. Which “% Inhibition at 1000 nM for CBZD” value did it give?
**A.** ++ (percentage of inhibition of central BZD site binding is greater than 80% in the presence of 1000 nM of the compound)
